Data reported in patent US8987314B2, “Amide, urea or sulfone amide linked benzothiazole inhibitors of endothelial lipase” (Bristol-Myers Squibb Company, priority 2012, dated 2015).
Like-named read-outs stand apart in the source and are kept apart here.

What was measured:
[1] = target: hepatic lipase (HL) (Homo sapiens (Human), UniProt P11150); experiment: HL assay: hepatic lipase activity with fluorescent substrate A10070 in DMPG vesicles; assay type: biochemical
Procedure, shortened: (§1)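 Substrate A10070 sits in sonicated DMPG vesicles at 0.11 mole fraction. Lipase and compound preincubated 30 min, 37° C, in HEPES pH 8.0 buffer with CaCl2.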

[2] = target: Endothelial lipase (EL) (Homo sapiens (Human), UniProt Q9Y5X9); experiment: EL assay: endothelial lipase activity with fluorescent substrate A10070 in DMPG vesicles; assay type: biochemical
Procedure, shortened: as §1

[3] = HL partially purified from conditioned media of COS cells, 30 min incubation with compound at 37° C., A10070/DMPG vesicles
[4] = EL from conditioned media of HT-1080 cells, 30 min incubation with compound at 37° C., A10070/DMPG vesicles

Chain of hepatic lipase (HL) (P11150 23-499, species assumed): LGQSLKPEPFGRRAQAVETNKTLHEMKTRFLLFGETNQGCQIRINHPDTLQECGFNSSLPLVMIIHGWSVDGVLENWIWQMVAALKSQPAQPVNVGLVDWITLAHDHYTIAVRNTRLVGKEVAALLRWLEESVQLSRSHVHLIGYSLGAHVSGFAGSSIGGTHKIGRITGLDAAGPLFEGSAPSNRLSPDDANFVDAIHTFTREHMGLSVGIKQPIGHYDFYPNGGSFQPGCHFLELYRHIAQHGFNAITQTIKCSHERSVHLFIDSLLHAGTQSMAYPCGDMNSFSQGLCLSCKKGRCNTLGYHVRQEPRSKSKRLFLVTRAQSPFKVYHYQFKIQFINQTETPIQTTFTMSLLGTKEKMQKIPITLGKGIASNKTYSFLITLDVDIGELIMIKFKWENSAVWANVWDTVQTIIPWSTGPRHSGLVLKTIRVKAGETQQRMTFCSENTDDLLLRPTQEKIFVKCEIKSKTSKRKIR
Chain of Endothelial lipase (EL) (Q9Y5X9 21-500): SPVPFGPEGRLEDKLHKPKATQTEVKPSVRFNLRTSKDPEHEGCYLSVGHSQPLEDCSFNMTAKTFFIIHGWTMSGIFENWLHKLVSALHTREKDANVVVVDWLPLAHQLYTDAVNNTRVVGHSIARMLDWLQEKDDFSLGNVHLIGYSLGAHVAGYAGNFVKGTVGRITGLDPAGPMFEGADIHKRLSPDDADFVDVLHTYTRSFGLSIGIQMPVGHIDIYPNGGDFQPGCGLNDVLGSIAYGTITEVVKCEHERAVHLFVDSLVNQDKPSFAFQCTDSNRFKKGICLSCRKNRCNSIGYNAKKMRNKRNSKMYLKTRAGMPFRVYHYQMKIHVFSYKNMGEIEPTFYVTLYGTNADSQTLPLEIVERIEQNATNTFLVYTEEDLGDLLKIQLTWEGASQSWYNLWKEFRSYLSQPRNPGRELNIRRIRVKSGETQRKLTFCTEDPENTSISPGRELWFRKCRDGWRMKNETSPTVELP

IC50 [1, 3]	IC50 [2, 4]	IC50 [1]	IC50 [2]	Structure (SMILES)
464 nM	< 10 nM	–	–	CS(=O)(=O)C(C(=O)NCCS(N)(=O)=O)c1nc2ccc(-c3cnn(C4CCNCC4)c3)cc2s1 (centres unmarked) [Example B98, 2-(Methylsulfonyl)-2-(6-(1-(4-piperidinyl)-1H-pyrazol-4-yl)-1,3-benzothiazol-2-yl)-N-(2-sulfamoylethyl)acetamide]
–	–	1240 nM	< 10 nM	COCCS(=O)(=O)C(C(=O)NCCS(N)(=O)=O)c1nc2ccc(-c3ccc(C(=O)N4CCOCC4)cc3)cc2s1 (centres unmarked) [Example B100, 2-((2-methoxyethyl)sulfonyl)-2-(6-(4-(4-morpholinyl-carbonyl)phenyl)-1,3-benzothiazol-2-yl)-N-(2-sulfamoylethyl)acetamide]
–	–	< 10 nM	< 10 nM	CCS(=O)(=O)C(C(=O)NCCS(N)(=O)=O)c1nc2ccc(-c3ccccc3)cc2s1 (centres unmarked) [Example B105, 2-(ethylsulfonyl)-2-(6-phenyl-1,3-benzothiazol-2-yl)-N-(2-sulfamoylethyl)a-cetamide]
–	–	< 10 nM	< 10 nM	CCCS(=O)(=O)C(C(=O)NCCS(N)(=O)=O)c1nc2ccc(-c3ccccc3)cc2s1 (centres unmarked) [Example B107, 2-(6-phenyl-1,3-benzothiazol-2-yl)-2-(propylsulfonyl)-N-(2-sulfamoylethyl)acetamide]
–	–	180 nM	< 10 nM	COCCNC(=O)c1ccc(-c2ccc3nc(C(C(=O)NCCS(N)(=O)=O)S(=O)(=O)CCC(F)(F)F)sc3c2)cc1 (centres unmarked) [Example B110, N-(2-methoxyethyl)-4-(2-(2-oxo-2-((2-sulfamoyl-ethyl)amino)-1-((3,3,3-trifluoropropyl)sulfonyl)eth-yl)-1,3-benzothiazol-6-yl)benzamide]
–	–	8330 nM	< 10 nM	COCCNC(=O)c1ccc(-c2ccc3nc(C(C(=O)NCCS(N)(=O)=O)S(=O)(=O)Cc4ccc(F)cc4)sc3c2)cc1 (centres unmarked) [Example B112, 4-(2-(1-((4-fluorobenzyl)sul-fonyl)-2-oxo-2-((2-sulfamoylethyl)amino)eth-yl)-1,3-benzothiazol-6-yl)-N-(2-methoxyethyl)ben-zamide]
–	–	48.2 nM	0.7 nM	COCCNC(=O)c1ccc(-c2ccc3nc(C(C(=O)NCCS(N)(=O)=O)S(=O)(=O)Cc4ccc(OC(F)(F)F)cc4)sc3c2)cc1 (centres unmarked) [Example B113, N-(2-methoxyethyl)-4-(2-(2-oxo-2-((2-sulfamoyl-ethyl)amino)-1-((4-(trifluoromethoxy)ben-zyl)sulfonyl)ethyl)-1,3-benzothiazol-6-yl)ben-zamide]
–	–	107 nM	1.2 nM	COCCNC(=O)c1ccc(-c2ccc3nc(C(C(=O)NCCS(N)(=O)=O)S(=O)(=O)Cc4cccc(C#N)c4)sc3c2)cc1 (centres unmarked) [Example B115]
–	–	400 nM	18 nM	CC(C)CS(=O)(=O)C(C(=O)NCCS(N)(=O)=O)c1nc2ccc(-c3cnn(CCN4CCOCC4)c3)cc2s1 (centres unmarked) [Example B123, 2-(isobutylsulfonyl)-2-(6-{1-[2-(4-morpholinyl)eth-yl]-1H-pyrazol-4-yl}-1,3-benzothiazol-2-yl)-N-(2-sulfamoylethyl)a-cetamide]
–	–	830 nM	26 nM	COCCS(=O)(=O)C(C(=O)NCCS(N)(=O)=O)c1nc2ccc(Br)cc2s1 (centres unmarked) [Example B124, 2-(6-bromo-1,3-benzothiazol-2-yl)-2-((2-methoxyethyl)sulfonyl)-N-(2-sulfamoylethyl)a-cetamide]

Continued, molecule first:

Structure (SMILES)	IC50 [1, 3]	IC50 [2, 4]	IC50 [1]	IC50 [2]
COCCNC(=O)c1ccc(-c2ccc3nc(C(C(=O)NCCS(N)(=O)=O)S(=O)(=O)Cc4ccccc4)sc3c2)cc1 (centres unmarked) [Example B99, 4-(2-(1-(Benzylsulfonyl)-2-oxo-2-((2-sulfamoylethyl)amino)ethyl)-1,3-benzothiazol-6-yl)-N-(2-methoxyethyl)benzamide]	55 nM	< 10 nM	–	–
CS(=O)(=O)C(C(=O)NCCS(N)(=O)=O)c1nc2ccc(-c3ccc(C(=O)N4CCOCC4)cc3)cc2s1 (centres unmarked) [Example B101, 2-(methylsulfonyl)-2-(6-(4-(4-morpholinylcarbonyl)phen-yl)-1,3-benzothiazol-2-yl)-N-(2-sulfamoylethyl)a-cetamide]	–	–	63 nM	< 10 nM
NS(=O)(=O)CCNC(=O)C(c1nc2ccc(-c3ccc(C(=O)N4CCOCC4)cc3)cc2s1)S(=O)(=O)Cc1ccccc1 (centres unmarked) [Example B102, 2-(benzylsulfonyl)-2-(6-(4-(4-morpholinylcarbonyl)phen-yl)-1,3-benzothiazol-2-yl)-N-(2-sulfamoylethyl)a-cetamide]	–	–	5290 nM	18 nM
COCCS(=O)(=O)C(C(=O)NCCS(N)(=O)=O)c1nc2ccc(-c3ccccc3)cc2s1 (centres unmarked) [Example B103, 2-((2-methoxyethyl)sul-fonyl)-2-(6-phenyl-1,3-benzothiazol-2-yl)-N-(2-sulfamoylethyl)acetemide]	–	–	< 10 nM	< 10 nM
NS(=O)(=O)CCNC(=O)C(c1nc2ccc(-c3ccccc3)cc2s1)S(=O)(=O)Cc1ccccc1 (centres unmarked) [Example B104, 2-(benzylsulfonyl)-2-(6-phenyl-1,3-benzothiazol-2-yl)-N-(2-sulfamoylethyl)a-cetamide]	–	–	< 10 nM	< 10 nM
CC(C)CS(=O)(=O)C(C(=O)NCCS(N)(=O)=O)c1nc2ccc(-c3ccccc3)cc2s1 (centres unmarked) [Example B106, 2-(isobutylsulfonyl)-2-(6-phenyl-1,3-benzothiazol-2-yl)-N-(2-sulfamoylethyl)a-cetamide]	–	–	< 10 nM	< 10 nM
NS(=O)(=O)CCNC(=O)C(c1nc2ccc(-c3ccc(C(=O)N4CCOCC4)cc3)cc2s1)S(=O)(=O)CCC(F)(F)F (centres unmarked) [Example B108, 2-(6-(4-(4-morpholinyl-carbonyl)phenyl)-1,3-benzothiazol-2-yl)-N-(2-sulfamoylethyl)-2-((3,3,3-trifluoropropyl)sul-fonyl)acetamide]	–	–	23 nM	< 10 nM
CC(C)CS(=O)(=O)C(C(=O)NCCS(N)(=O)=O)c1nc2ccc(-c3ccc(C(=O)N4CCOCC4)cc3)cc2s1 (centres unmarked) [Example B109, 2-(isobutylsulfonyl)-2-(6-(4-(4-morpholinyl-carbonyl)phenyl)-1,3-benzothiazol-2-yl)-N-(2-sulfamoylethyl)acetamide]	–	–	191 nM	< 10 nM
NS(=O)(=O)CCNC(=O)C(c1nc2ccc(-c3ccc(C(=O)N4CCOCC4)cc3)cc2s1)S(=O)(=O)CC1CC1 (centres unmarked) [Example B111, 2-((cyclopropylmethyl)sul-fonyl)-2-(6-(4-(4-morpholinylcarbonyl)phen-yl)-1,3-benzothiazol-2-yl)-N-(2-sulfamoylethyl)a-cetamide]	–	–	1460 nM	< 10 nM
COCCNC(=O)c1ccc(-c2ccc3nc(C(C(=O)NCCS(N)(=O)=O)S(=O)(=O)Cc4ccc(C(F)(F)F)cc4)sc3c2)cc1 (centres unmarked) [Example B116, N-(2-methoxyethyl)-4-(2-(2-oxo-2-((2-sulfamoyl-ethyl)amino)-1-((4-(trifluoromethyl)benzyl)sul-fonyl)ethyl)-1,3-benzothiazol-6-yl)ben-zamide]	–	–	182 nM	< 10 nM
COCCNC(=O)c1ccc(-c2ccc3nc(C(C(=O)NCCS(N)(=O)=O)S(=O)(=O)Cc4cccc(F)c4)sc3c2)cc1 (centres unmarked) [Example B117, 4-(2-(1-((3-fluorobenzyl)sulfonyl)-2-oxo-2-((2-sulfamoylethyl)a-mino)ethyl)-1,3-benzothiazol-6-yl)-N-(2-methoxyethyl)benzamide]	–	–	176 nM	< 10 nM
NS(=O)(=O)CCNC(=O)C(c1nc2ccc(-c3ccccc3)cc2s1)S(=O)(=O)CC1CC1 (centres unmarked) [Example B118, 2-((cyclopropylmethyl)sul-fonyl)-2-(6-phenyl-1,3-benzothiazol-2-yl)-N-(2-sulfamoylethyl)acetamide]	–	–	10 nM	< 10 nM
NS(=O)(=O)CCNC(=O)C(c1nc2ccc(-c3ccccc3)cc2s1)S(=O)(=O)Cc1ccc(F)cc1 (centres unmarked) [Example B119, 2-((4-fluorobenzyl)sul-fonyl)-2-(6-phenyl-1,3-benzothiazol-2-yl)-N-(2-sulfamoylethyl)acetamide]	–	–	11 nM	< 10 nM
N#Cc1cccc(CS(=O)(=O)C(C(=O)NCCS(N)(=O)=O)c2nc3ccc(-c4ccccc4)cc3s2)c1 (centres unmarked) [Example B120, 2-((3-cyanobenzyl)sul-fonyl)-2-(6-phenyl-1,3-benzothiazol-2-yl)-N-(2-sulfamoylethyl)acetamide]	–	–	15 nM	< 10 nM
COc1ccc(CN(Cc2ccc(OC)cc2)S(=O)(=O)CCNC(=O)C(c2nc3ccc(-c4ccccc4)cc3s2)S(C)(=O)=O)cc1 (centres unmarked) [Example B121, N-(2-(bis(4-methoxybenzyl)sulfamoyl)eth-yl)-2-(methylsulfonyl)-2-(6-phenyl-1,3-benzothiazol-2-yl)a-cetamide]	–	–	11 nM	80 nM
NS(=O)(=O)CCNC(=O)C(c1nc2ccc(-c3cnn(CCN4CCOCC4)c3)cc2s1)S(=O)(=O)Cc1ccccc1 (centres unmarked) [Example B122, 2-(benzylsulfonyl)-2-(6-{1-[2-(4-morpholinyl)ethyl]-1H-pyrazol-4-yl}-1,3-benzothiazol-2-yl)-N-(2-sulfamoylethyl)acetamide]	–	–	631 nM	44 nM
NS(=O)(=O)CCNC(=O)C(c1nc2ccc(Br)cc2s1)S(=O)(=O)CCC(F)(F)F (centres unmarked) [Example B125, 2-(6-bromo-1,3-benzothiazol-2-yl)-N-(2-sulfamoylethyl)-2-((3,3,3-trifluoropropyl)sulfonyl)a-cetamide]	–	–	300 nM	99 nM
NS(=O)(=O)CCNC(=O)C(c1nc2ccc(-c3ccnc(F)c3)cc2s1)S(=O)(=O)Cc1ccccc1 (centres unmarked) [Example B126, 2-(benzylsulfonyl)-2-(6-(2-fluoro-4-pyridinyl)-1,3-benzothiazol-2-yl)-N-(2-sulfamoylethyl)acetamide]	–	–	51 nM	< 10 nM
